Test results from patent publication US20250042889A1, “3CLPRO PROTEASE INHIBITOR” (SHANGHAI QILU PHARMACEUTICAL RESEARCH AND DEVELOPMENT …, priority 2021, published 2025).

Biological target: SARS-COV-2 3CLpro/Mpro protease (Severe acute respiratory syndrome coronavirus 2 (2019-nCoV) (SARS-CoV-2), UniProt P0DTD1)
Experiment: Inhibitory effect on SARS-COV-2 3CLpro/Mpro protease by fluorescence resonance energy transfer
Assay type: biochemical
Conditions: activity intervals A-D, read-out: IC50 (nM), Inhibition on SARS-CoV-2 3CLpro/Mpro protease

`O=C(c1cc(Br)cc([N+](=O)[O-])c1N[C@@H]1CCCN(C(=O)c2cncc3ccccc23)C1)N1CCOCC1` [Example 38] gave an IC50 of under 10 nM.
Work on `O=C(c1cc(Br)cc([N+](=O)[O-])c1N[C@@H]1CCCN(C(=O)c2cncc3ccccc23)C1)N1CCCC1` [Example 39] yielded an IC50 of under 10 nM.
`O=C(c1cc(Br)cc([N+](=O)[O-])c1N[C@@H]1CCN(C(=O)c2cncc3ccccc23)C1)N1CCCC1` [Example 40] gave an IC50 of 10 to 50 nM.
For `N#Cc1cncc(C(=O)N2CCC[C@@H](Nc3c(C(=O)N4CCCCC4)cc(Br)cc3[N+](=O)[O-])C2)c1` [Example 41], the IC50 was 10 to 50 nM.
`Nc1cncc(C(=O)N2CCC[C@@H](Nc3c(C(=O)N4CCCCC4)cc(Br)cc3[N+](=O)[O-])C2)c1` [Example 42] gave an IC50 of 10 to 50 nM.
Molecule `Cc1cncc(C(=O)N2CCC[C@@H](Nc3c(C(=O)N4CCCCC4)cc(Br)cc3[N+](=O)[O-])C2)c1` [Example 43] has an IC50 of 10 to 50 nM.
For `O=C(c1cncc(Br)c1)N1CCC[C@@H](Nc2c(C(=O)N3CC4CC4C3)cc(Br)cc2[N+](=O)[O-])C1` (stereo partly shown) [Example 44], the IC50 was under 10 nM.
`O=C(c1cncc(C2CC2)c1)N1CCC[C@@H](Nc2c(C(=O)N3CCCCC3)cc(Br)cc2[N+](=O)[O-])C1` [Example 45] was tested, and the IC50 was 10 to 50 nM.
For `Cc1c(Br)cncc1C(=O)N1CCC[C@@H](Nc2c(C(=O)N3CCCCC3)cc(Br)cc2[N+](=O)[O-])C1` [Example 46], the IC50 was 10 to 50 nM.
In the case of `O=C(c1cncc(Br)c1)N1CC[C@@H](Nc2c(C(=O)N3CCCCC3)cc(Br)cc2C(F)(F)F)C1` [Example 47], the IC50 is reported as 10 to 50 nM.
`O=C(c1cc(Br)cc(C(F)(F)F)c1N[C@@H]1CCN(C(=O)c2cncc3ccccc23)C1)N1CCCCC1` [Example 48] gave an IC50 of 10 to 50 nM.
`O=C(c1cncc(Br)c1)N1CCC[C@@H](Nc2c(C(=O)N3CCC(F)(F)CC3)cc(Br)cc2C(F)(F)F)C1` [Example 49] showed an IC50 of 10 to 50 nM.
Work on `O=C(c1cncc(O)c1)N1CCC[C@@H](Nc2c(C(=O)N3CCC(F)(F)CC3)cc(Br)cc2[N+](=O)[O-])C1` [Example 50] yielded an IC50 of 50 to 100 nM.
In the case of `O=C(c1cc(Br)cc([N+](=O)[O-])c1N[C@@H]1CCN(C(=O)c2cncc3cc(Cl)ccc23)C1)N1CC2CC2C1` (stereo partly shown) [Example 51], the IC50 is reported as 10 to 50 nM.
In the case of `O=C(c1cc(=O)[nH]c(=O)[nH]1)N1CCC[C@@H](Nc2c(C(=O)N3CCC(F)(F)CC3)cc(Br)cc2[N+](=O)[O-])C1` [Example 53], the IC50 is reported as 50 to 100 nM.
Work on `O=C(c1cc(Br)cc([N+](=O)[O-])c1N[C@@H]1CCCN(C(=O)c2cc(=O)[nH]c3ccccc23)C1)N1CCC(F)(F)CC1` [Example 54] yielded an IC50 of 10 to 50 nM.
Molecule `CNc1cncc(C(=O)N2CCC[C@@H](Nc3c(C(=O)N4CCO[C@H](C(F)F)C4)cc(Br)cc3[N+](=O)[O-])C2)c1` [Example 55] has an IC50 of 10 to 50 nM.
In the case of `O=C(c1cc(Br)cc([N+](=O)[O-])c1N[C@@H]1CCCN(C(=O)c2cnnc3ccccc23)C1)N1CCCCC1` [Example 56], the IC50 is reported as 10 to 50 nM.
With `N#Cc1cc(Cl)cc(C(=O)N2CCCCC2)c1N[C@@H]1CCCN(C(=O)c2cncc3ccccc23)C1` [Example 59] the IC50 was 10 to 50 nM.
Work on `O=C(c1cncnc1)N1CCC[C@@H](Nc2c(C(=O)N3CCCCC3)cc(Br)cc2[N+](=O)[O-])C1` [Example 60] yielded an IC50 of 50 to 100 nM.
Molecule `O=C(c1cncc(OC(F)F)c1)N1CCC[C@@H](Nc2c(C(=O)N3CCCCC3)cc(Br)cc2[N+](=O)[O-])C1` [Example 61] has an IC50 of 50 to 100 nM.
`O=C(c1cncc(Br)c1)N1CC[C@@H](Nc2c(C(=O)N3CCCCC3)cc(Br)cc2[N+](=O)[O-])C1` [Example 64] was tested, and the IC50 was 10 to 50 nM.
`O=C(c1cncc(Br)c1)N1CCC[C@@H](Nc2c(C(=O)N3CCCC3)cc(Br)cc2[N+](=O)[O-])C1` [Example 65] gave an IC50 of 10 to 50 nM.
`O=C(c1cncc(Br)c1)N1CCC[C@@H](Nc2c(C(=O)N3CCCCC3)cc(Br)cc2C(F)(F)F)C1` [Example 66] was tested, and the IC50 was 10 to 50 nM.
Molecule `O=C(c1cc(Br)cc(C(F)(F)F)c1N[C@@H]1CCCN(C(=O)c2cncc3ccccc23)C1)N1CCCCC1` [Example 67] has an IC50 of 10 to 50 nM.
In the case of `O=C(c1cncc(Br)c1)N1CC[C@@H](Nc2c(C(=O)N3CCCCC3)cc(Br)cc2C(F)(F)F)C1` [Example 68], the IC50 is reported as 50 to 100 nM.
Work on `O=C(c1cncc(Br)c1)N1CC[C@@H](Nc2c(C(=O)N3CCC(F)(F)CC3)cc(Br)cc2C(F)(F)F)C1` [Example 69] yielded an IC50 of 50 to 100 nM.
In the case of `O=C(c1cncc(C(F)(F)F)c1)N1CCC[C@@H](Nc2c(C(=O)N3CCC(F)(F)CC3)cc(Br)cc2[N+](=O)[O-])C1` [Example 70], the IC50 is reported as 10 to 50 nM.
`Nc1cncc(C(=O)N2CCC[C@@H](Nc3c(C(=O)N4CCC(F)(F)CC4)cc(Br)cc3[N+](=O)[O-])C2)c1` [Example 71] gave an IC50 of 10 to 50 nM.
Molecule `C[C@@H]1C[C@H](C)CN(C(=O)c2cc(Br)cc([N+](=O)[O-])c2N[C@@H]2CCCN(C(=O)c3cncc(Br)c3)C2)C1` [Example 72] has an IC50 of under 10 nM.
`C[C@@H]1CN(C(=O)c2cc(Br)cc([N+](=O)[O-])c2N[C@@H]2CCCN(C(=O)c3cncc(Br)c3)C2)C[C@H](C)N1` [Example 73] gave an IC50 of 10 to 50 nM.
With `Cc1cncc(C(=O)N2CCC[C@@H](Nc3c(C(=O)N4CCC(F)(F)CC4)cc(Br)cc3[N+](=O)[O-])C2)c1` [Example 74] the IC50 was 50 to 100 nM.
`O=C(c1cncc(I)c1)N1CCC[C@@H](Nc2c(C(=O)N3CCC(F)(F)CC3)cc(Br)cc2[N+](=O)[O-])C1` [Example 75] gave an IC50 of under 10 nM.
`C[C@@H]1CN(C(=O)c2cc(Br)cc([N+](=O)[O-])c2N[C@@H]2CCN(C(=O)c3cncc(Br)c3)C2)C[C@H](C)O1` [Example 76] showed an IC50 of under 10 nM.
For `CNc1cncc(C(=O)N2CCC[C@@H](Nc3c(C(=O)N4C[C@@H](C)N(C)[C@@H](C)C4)cc(Br)cc3[N+](=O)[O-])C2)c1` [Example 79], the IC50 was 50 to 100 nM.
`CNc1cncc(C(=O)N2C[C@H](Nc3c(C(=O)N4CCCCC4)cc(Br)cc3[N+](=O)[O-])C(F)(F)C2)c1` [Example 81] showed an IC50 of 10 to 50 nM.
In the case of `CNc1cncc(C(=O)N2C[C@H](Nc3c(C(=O)N4CCCCC4)cc(Br)cc3[N+](=O)[O-])C3(CC3)C2)c1` [Example 82], the IC50 is reported as 10 to 50 nM.
In the case of `CNc1cncc(C(=O)N2C[C@H](Nc3c(C(=O)N4CC5C(C4)C5(C)C)cc(Br)cc3[N+](=O)[O-])C3(CC3)C2)c1` (stereo partly shown) [Example 83], the IC50 is reported as 10 to 50 nM.
In the case of `CNc1cncc(C(=O)N2C[C@H](Nc3c(C(=O)N4CCN(CC(F)(F)F)CC4)cc(Br)cc3[N+](=O)[O-])C3(CC3)C2)c1` [Example 84], the IC50 is reported as 10 to 50 nM.
`CNc1cncc(C(=O)N2C[C@H](Nc3c(C(=O)N4CCN(CC(F)(F)F)C(=O)C4)cc(Br)cc3[N+](=O)[O-])C3(CC3)C2)c1` [Example 85] showed an IC50 of 10 to 50 nM.
For `CNc1cncc(C(=O)N2C[C@H](Nc3c(C(=O)N4C[C@H](C)C[C@H](C)C4)cc(Br)cc3[N+](=O)[O-])C3(CC3)C2)c1` [Example 86], the IC50 was 10 to 50 nM.
`CNc1cncc(C(=O)N2C[C@H](Nc3c(C(=O)N4CCC(C)(C)CC4)cc(Br)cc3[N+](=O)[O-])C3(CC3)C2)c1` [Example 87] was tested, and the IC50 was 10 to 50 nM.
`Cc1cc(C(=O)N2C[C@H](Nc3c(C(=O)N4CC5C(C4)C5(C)C)cc(Br)cc3[N+](=O)[O-])C3(CC3)C2)cc(=O)[nH]1` (stereo partly shown) [Example 88] gave an IC50 of 10 to 50 nM.
`Cc1cc(C(=O)N2C[C@H](Nc3c(C(=O)NCC(F)(F)F)cc(Br)cc3[N+](=O)[O-])C3(CC3)C2)cc(=O)[nH]1` [Example 89] showed an IC50 of 10 to 50 nM.
In the case of `Cc1cc(C(=O)N2C[C@H](Nc3c(C(=O)N4CCN(CC(F)(F)F)CC4)cc(Br)cc3[N+](=O)[O-])C3(CC3)C2)cc(=O)[nH]1` [Example 90], the IC50 is reported as 10 to 50 nM.
`Cc1cc(C(=O)N2C[C@H](Nc3c(C(=O)N4CCN(CC(F)(F)F)C(=O)C4)cc(Br)cc3[N+](=O)[O-])C3(CC3)C2)cc(=O)[nH]1` [Example 91] gave an IC50 of 10 to 50 nM.
With `Cc1cc(C(=O)N2C[C@H](Nc3c(C(=O)N4C[C@H](C)C[C@H](C)C4)cc(Br)cc3[N+](=O)[O-])C3(CC3)C2)cc(=O)[nH]1` [Example 92] the IC50 was 10 to 50 nM.
`Cc1cc(C(=O)N2C[C@H](Nc3c(C(=O)N4CCC(C)(C)CC4)cc(Br)cc3[N+](=O)[O-])C3(CC3)C2)cc(=O)[nH]1` [Example 93] showed an IC50 of 10 to 50 nM.
In the case of `Cc1cc(C(=O)N2C[C@H](Nc3c(C(=O)N4CCC5(CC4)CC5)cc(Br)cc3[N+](=O)[O-])C3(CC3)C2)cc(=O)[nH]1` [Example 94], the IC50 is reported as 10 to 50 nM.
`Cc1cc(C(=O)N2C[C@H](Nc3c(C(=O)N4CCC5(CCC5)CC4)cc(Br)cc3[N+](=O)[O-])C3(CC3)C2)cc(=O)[nH]1` [Example 95] was tested, and the IC50 was 10 to 50 nM.
For `CNc1cncc(C(=O)N2CCC[C@@H](Nc3c(C(=O)N4CC(=O)NC(C)C4)cc(Br)cc3[N+](=O)[O-])C2)c1` (stereo partly shown) [Example 96], the IC50 was 50 to 100 nM.
Work on `CNc1cncc(C(=O)N2CC(Nc3c(C(=O)N4CCN(CC(F)(F)F)CC4)cc(Br)cc3[N+](=O)[O-])C(F)(F)C2)c1` (stereo not shown) [Example 98] yielded an IC50 of 10 to 50 nM.
`CNc1cncc(C(=O)N2CC(Nc3c(C(=O)N4CCN(CC(F)(F)F)C(=O)C4)cc(Br)cc3[N+](=O)[O-])C(F)(F)C2)c1` (stereo not shown) [Example 99] was tested, and the IC50 was 100 to 200 nM.
`CNc1cncc(C(=O)N2CC(Nc3c(C(=O)N4C[C@H](C)C[C@H](C)C4)cc(Br)cc3[N+](=O)[O-])C(F)(F)C2)c1` (stereo partly shown) [Example 100] gave an IC50 of 10 to 50 nM.
Molecule `Cc1cc(C(=O)N2CC(Nc3c(C(=O)N4CCCCC4)cc(Br)cc3[N+](=O)[O-])C(F)(F)C2)cc(=O)[nH]1` (stereo not shown) [Example 101] has an IC50 of 50 to 100 nM.
`CC1(Nc2c(C(=O)N3CCCCC3)cc(Br)cc2[N+](=O)[O-])CCCN(C(=O)c2cncc3ccccc23)C1` (stereo not shown) [Example 102] was tested, and the IC50 was 10 to 50 nM.
`O=C(c1cc(Br)cc([N+](=O)[O-])c1N[C@@H]1CCCN(C(=O)c2cncc3cc(F)ccc23)C1)N1CCCCC1` [Example 103] was tested, and the IC50 was 10 to 50 nM.
For `O=C(c1cncc(Br)c1)N1CC(Nc2c(C(=O)N3CCC(F)(F)CC3)cc(Br)cc2[N+](=O)[O-])C(F)(F)C1` (stereo not shown) [Example 104], the IC50 was 10 to 50 nM.
`O=C(c1cc(Br)c[n+]([O-])c1)N1CCC[C@@H](Nc2c(C(=O)N3CCC(F)(F)CC3)cc(Br)cc2[N+](=O)[O-])C1` [Example 105] was tested, and the IC50 was 50 to 100 nM.
For `O=C(c1cc(Br)cnc1F)N1CCC[C@@H](Nc2c(C(=O)N3CCC(F)(F)CC3)cc(Br)cc2[N+](=O)[O-])C1` [Example 106], the IC50 was 10 to 50 nM.
`O=C(N[C@H]1CCCC[C@H]1Nc1c(C(=O)N2CCOCC2)cc(Br)cc1[N+](=O)[O-])c1cc(=O)[nH]c2ccccc12` [Example 107] was tested, and the IC50 was 10 to 50 nM.
